Test results: patent US20070231921A1, “Method and system for determining whether a drug will be effective on a patient with a disease” (priority 2006, published 2007)

How the values were obtained:
[1] = test system: Non-Small-Cell Lung Cancer; experiment: Response rate of Iressa in Japanese NSCLC patients, without and with filtering by the serum mass spectrometer test; type: in vivo, human; settings: Japanese population
Experimental: Continuing with FIG. 3, step 312, learning may be utilized in generating classifiers for a training set of spectra. In the case of sampling serum for detecting whether an anti-cancer drug will be effective on non-small-cell lung cancer, control groups of patients were utilized, including using three sets of patients whose cancer progressed following chemotherapy. Each of the patients was treated with Iressa and information, including survival times, of these patients was recorded. […] Each data set represents the cancer research center from which spectra and associated patient information was received.
TABLE III is a summary of the data set attributes used in a study to determine whether a classifier algorithm could be effective in determining whether a cancer patient would be responsive to Iressa. Data sets Italian 1, Italian 2, Japan 1, and Japan 2 were treated with Iressa following sample collection. Training and testing in the development phase was done crosswise from the Italian 1 sets and the two Japanese sets. The patient data included survival data, where the Italian set had very complete patient history together with treatment and cancer type, the Japanese sets only included prognostic information relating to the WHO definitions of clinical labels, including stable disease (SD), progressive disease (PD), and partial responders (PR) measured by CT imaging. […]

[2] = test system: Non-Small-Cell Lung Cancer; settings: NSCLC patients in Asia, compared with Caucasian populations; cited from earlier work

## COc1cc2ncnc(Nc3ccc(F)c(Cl)c3)c2cc1OCCCN1CCOCC1 [Iressa, gefitinib]
[1]; after serum based mass spectrometer test filters non-responders from responders
  response rate of Iressa: 90%
[1]; before filtering non-responders from responders
  response rate of Iressa: 65%
[2]
  response rate: considerably higher
